Source: ChEMBL document CHEMBL4354877, “MymA Bioactivated Thioalkylbenzoxazole Prodrug Family Active against Mycobacterium tuberculosis” (J Med Chem, 2020)

How the values were obtained:
Assay type in all cases: functional
[1] = system: Mycobacterium tuberculosis; assay: Antimycobacterial activity against Mycobacterium tuberculosis 2-RM1 expressing ethA frameshift mutant assessed as inhibition of microbial growth incubated for 6 days by alamar blue resazurin assay
[2] = system: Mycobacterium tuberculosis; assay: Antimycobacterial activity against Mycobacterium tuberculosis SG2 expressing ethA and mymA mutant assessed as inhibition of microbial growth incubated for 6 days by alamar blue resazurin assay
[3] = system: Mycobacterium tuberculosis; assay: Antimycobacterial activity against Mycobacterium tuberculosis 3-RM1 expressing mymA mutant assessed as inhibition of microbial growth incubated for 6 days by alamar blue resazurin assay
[4] = system: Mycobacterium tuberculosis; assay: Antimycobacterial activity against Mycobacterium tuberculosis Rv3083::Tn expressing mymA mutant assessed as inhibition of microbial growth incubated for 6 days by alamar blue resazurin assay

Question: `O=C(CCSc1nc2cc(Cl)ccc2o1)N1CCCC1` was tested. Which MIC [1] did it give?
Answer: 10 µM

Question: And the MIC [2]?
Answer: 80 µM

Question: And the MIC [3]?
Answer: 40 µM

Question: What about the MIC [4] of the same compound?
Answer: 40 µM
